Measured values published in PubChem BioAssay AID463203 (Broad Institute, 2010).
The source made the active and inactive calls.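 How the source made its calls: active means more than half of replicate measurements showing over 20% loss of kinase signal relative to plate controls; inconclusive means some but at most half of replicates over 20% loss; inactive means no replicate over 20% signal loss.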

The compounds below were run against Glycogen synthase kinase-3 alpha (Homo sapiens) (UniProt P49840) (assay: concentration-response blocking of human GSK3A – biochemical, luminescence, cell-free homogeneous, retest, dose response (AID 463203)). Conditions: GSK-3 alpha enzyme, ADP-Glo luminescence, 60 min.
Glycogen synthase kinase-3 alpha (Homo sapiens), sequence (P49840 whole entry, looked up): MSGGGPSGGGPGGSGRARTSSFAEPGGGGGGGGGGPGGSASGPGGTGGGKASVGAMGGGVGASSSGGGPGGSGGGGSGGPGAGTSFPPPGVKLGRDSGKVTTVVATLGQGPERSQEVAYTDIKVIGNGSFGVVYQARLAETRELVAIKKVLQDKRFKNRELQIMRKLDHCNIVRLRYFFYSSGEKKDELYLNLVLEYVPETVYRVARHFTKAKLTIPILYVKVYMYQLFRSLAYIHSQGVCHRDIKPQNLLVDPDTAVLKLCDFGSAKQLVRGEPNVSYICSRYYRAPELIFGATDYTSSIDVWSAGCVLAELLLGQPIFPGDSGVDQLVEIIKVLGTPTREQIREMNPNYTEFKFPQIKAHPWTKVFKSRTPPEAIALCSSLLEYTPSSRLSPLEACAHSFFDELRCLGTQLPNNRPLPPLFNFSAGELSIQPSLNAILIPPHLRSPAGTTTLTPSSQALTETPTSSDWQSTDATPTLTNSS
CC1CCN(Cc2c(O)ccc3c2O/C(=C\c2ccco2)C3=O)CC1 showed an AC50 of 4.41 µM. In the case of Nc1cc(C(F)(F)F)ccc1C(=O)O, the AC50 is reported as > 30 µM (inactive). With COc1cccc(C(=O)O/N=C(\N)c2ccccn2)c1OC the AC50 was > 30 µM (inactive). With Cc1cc(C)c[n+](C2=C([O-])c3ccccc3C(=O)/C2=N\S(=O)(=O)c2cccs2)c1 the AC50 was > 30 µM (inactive). For CCOC(=O)c1cnn(Cc2ccccc2Cl)c1N, the AC50 was > 30 µM (inactive). COC(=O)C1=C(C)N(CC(C)C)C(=O)/C1=C\c1cccs1 was tested, and the AC50 was > 30 µM (inactive). O=C(NCCCN1CCCC1)c1cc2c(Cl)nc3ccccc3c2s1 was tested, and the AC50 was > 30 µM (inactive). Work on Nc1c(CO)nnn1-c1ccccc1 yielded an AC50 of 11.4 µM. O=C(Nc1cccc(C(=O)N2CCOCC2)c1)c1cccnc1 was tested, and the AC50 was > 30 µM (inactive). For CN(Cc1c(C(=O)N/N=C/c2ccc(O)cc2)nnn1-c1nonc1N)c1ccccc1, the AC50 was 0.243 µM. For CCOc1cc(/C=N/Nc2ncnc(Cl)c2N)ccc1O, the AC50 was 29.6 µM. CCC(Oc1ccccc1)C(=O)Nc1ncc([N+](=O)[O-])s1 (stereo not drawn) was tested, and the AC50 was > 30 µM (inactive). For CC1(C)Oc2ccc3ccc(=O)oc3c2-c2cnoc21, the AC50 was > 30 µM (inactive). In the case of COc1ccc2nc(NC(=O)CSc3nnc(-c4ccoc4C)n3C)sc2c1, the AC50 is reported as 4.62 µM. For CC(=NCCCn1ccnc1)c1c(O)n(C)c(=O)n(C)c1=O, the AC50 was > 30 µM (inactive). CC(C)(C)OC(=O)N1CCN(C(=O)c2[nH]cnc2C(=O)Nc2ccon2)CC1 was tested, and the AC50 was > 30 µM (inactive). COc1cccc(NC(=O)c2nnn(Cc3ccc(Br)cc3F)c2N)c1 gave an AC50 of 11.1 µM. CN1/C(=C\C=C(/C#N)C(=O)Nc2ccc(Cl)cc2)C(C)(C)c2ccccc21 was tested, and the AC50 was > 30 µM (inactive). COc1ccc(OCc2nc(N)nc(Nc3ccc(C)cc3)n2)cc1 was tested, and the AC50 was > 30 µM (inactive). COc1ccc(S(=O)(=O)N[C@H](C(=O)O)C(C)C)cc1 was tested, and the AC50 was > 30 µM (inactive). c1ccc2[nH]c(C3CC3)nc2c1 was tested, and the AC50 was > 30 µM (inactive). With c1csc(CNc2ncnc3sccc23)c1 the AC50 was > 30 µM (inactive). In the case of CC(=O)O[C@@H]1[C@@H](O)[C@@H](O)[C@H](Oc2c(-c3ccc(O)cc3)oc3c(CC=C(C)C)c(O)cc(O)c3c2=O)O[C@H]1C, the AC50 is reported as 14.4 µM. For COc1ccc(/C=C2\Oc3cc(OCC(=O)N4CCC[C@H]4C(=O)O)ccc3C2=O)c(OC)c1OC, the AC50 was > 30 µM (inactive). Nn1c(-c2ccc(O)cc2)nnc1-c1ccc(O)cc1 was tested, and the AC50 was > 30 µM (inactive). For CCn1c(=O)[nH]c(=O)c2c(N)c(C(=O)c3cc(F)ccc3F)sc21, the AC50 was 10.4 µM. For COc1cccc(-c2c(C(=O)N/N=C(\C)c3cccs3)nnn2-c2nonc2N)c1, the AC50 was 1.61 µM. For O=[N+]([O-])c1cc(S(=O)(=O)c2ccc(N3CCCCC3)c([N+](=O)[O-])c2)ccc1N1CCCCC1, the AC50 was > 30 µM (inactive). In the case of Fc1ccccc1-c1nnc2ccc3ccccc3n12, the AC50 is reported as > 30 µM (inactive). Compound NC(=O)c1cc([N+](=O)[O-])c(Cl)cc1NCc1cccnc1 has an AC50 of 4.43 µM. For Cn1c2ccc(F)cc2c2nc3ccccc3nc21, the AC50 was > 30 µM (inactive). With COc1ccc(S(=O)(=O)Nc2ccc(S(=O)(=O)Nc3nc(C)cc(C)n3)cc2)cc1OC the AC50 was > 30 µM (inactive). Nc1c(C(=O)Nc2ccc3c(c2)OCCO3)nnn1Cc1ccccc1Cl was tested, and the AC50 was > 30 µM (inactive). In the case of N#Cc1c(-c2ccccc2)nc(SCc2ccc(Cl)cc2)[nH]c1=O, the AC50 is reported as > 30 µM (inactive). For NCCNc1ccc([N+](=O)[O-])c(NC2CC2)c1, the AC50 was > 30 µM (inactive). With CC[n+]1c(/C=C/C=C/N(C(C)=O)c2ccccc2)sc2ccccc21 the AC50 was > 30 µM (inactive). With Clc1cncc(Cl)c1N/N=C/c1ccncc1 the AC50 was > 30 µM (inactive). With c1ccc(Cn2nc(-c3ccccc3)nc2-c2ccccc2)cc1 the AC50 was > 30 µM (inactive). For Cc1cc(N2CCN(c3ccccc3)CC2)n2nnnc2n1, the AC50 was > 30 µM (inactive). In the case of COC(=O)c1sccc1NC(=O)c1ccccc1, the AC50 is reported as > 30 µM (inactive). With Cn1cnc(C(=O)NC2CCN(C(=O)OC(C)(C)C)CC2)c1C(=O)NC1CCN(C(=O)OC(C)(C)C)CC1 the AC50 was > 30 µM (inactive). With O=C(NC(=S)NCC1COc2ccccc2O1)c1ccccc1 (stereo not drawn) the AC50 was > 30 µM (inactive). Cc1ccc(NC(=S)Nc2ccc3cn[nH]c3c2)c(C)c1 was tested, and the AC50 was > 30 µM (inactive). O=C(COc1ccccc1F)NC12CC3CC(CC(C3)C1)C2 was tested, and the AC50 was > 30 µM (inactive). CS(=O)(=O)Nc1ccc(-c2ccc(/C=C3\SC(N)=NC3=O)o2)cc1 gave an AC50 of 1.02 µM. For O=C(/C(=N/N=C/c1ccc(O)c(O)c1)c1ccccc1)c1ccccc1, the AC50 was > 30 µM (inactive). For CCOC(=O)c1nnn(-c2nonc2-n2cccc2)c1C, the AC50 was > 30 µM (inactive). For CCCCCCCNc1nc(Cl)nc(NCCO)n1, the AC50 was > 30 µM (inactive). With COc1ccc(C(=O)NCC(=O)N/N=C/C(C)=C/c2ccccc2)cc1OC the AC50 was > 30 µM (inactive). In the case of O=C(N/N=C/c1cccnc1)c1cccc(S(=O)(=O)N2CCCC2)c1, the AC50 is reported as > 30 µM (inactive). In the case of CN(C)c1ccc(CN2CCCCC2)cc1, the AC50 is reported as > 30 µM (inactive). NC(=O)c1c(NC(=O)CN2C(=O)NC(Cc3ccccc3)C2=O)sc2c1CCC2 (stereo not drawn) gave an AC50 of 20.3 µM. CCOC(=O)c1nnn(-c2nonc2N)c1-c1cccc2ccccc12 showed an AC50 of 27.9 µM.
